Patent US20090123543A1, “PHARMACEUTICAL COMPOSITIONS” (priority 2006, published 2009)

Test: Comparative physical (blend) properties of valsartan and valsartan granules
Type: physicochemical
Procedure: Valsartan was added to molten Lutrol F127 (at about 60-65° C.) under continuous mixing till a uniform semi-solid mixture was obtained. Weighed quantity of microcrystalline cellulose was added to the molten semi-solid mixture under continuous mixing. The blend was then allowed to cool to room temperature and the cooled mass was crushed and passed through 20# sieve.

CCCCC(=O)N(Cc1ccc(-c2ccccc2-c2nnn[nH]2)cc1)[C@H](C(=O)O)C(C)C [Valsartan]
Bulk density (blend property): 0.12 g/mL | Flow (flow through funnel/orifice): as valsartan did not flow
